A word on the IC50: it is the concentration needed to halve the response being measured.

The source of these data is patent publication US10344017B2, “Pyrrolcarboxamide derivatives for the inhibition of ERK5” (CANCER RESEARCH TECHNOLOGY LIMITED, priority 2014, dated 2019).

Like-named read-outs stand apart in the source and are kept apart here.

The assay has as its target T1, ERK5 (Homo sapiens, UniProt Q13164).
T1 construct: made in house
Briefly: ERK5 IMAP assay (fluorescence polarisation). In kind it is biochemical.

The mark [1] stands for this setting: average (e.g. geometric mean) where more than one data point, read-out: ERK5 IC50.

T1 sequence (Q13164 whole entry): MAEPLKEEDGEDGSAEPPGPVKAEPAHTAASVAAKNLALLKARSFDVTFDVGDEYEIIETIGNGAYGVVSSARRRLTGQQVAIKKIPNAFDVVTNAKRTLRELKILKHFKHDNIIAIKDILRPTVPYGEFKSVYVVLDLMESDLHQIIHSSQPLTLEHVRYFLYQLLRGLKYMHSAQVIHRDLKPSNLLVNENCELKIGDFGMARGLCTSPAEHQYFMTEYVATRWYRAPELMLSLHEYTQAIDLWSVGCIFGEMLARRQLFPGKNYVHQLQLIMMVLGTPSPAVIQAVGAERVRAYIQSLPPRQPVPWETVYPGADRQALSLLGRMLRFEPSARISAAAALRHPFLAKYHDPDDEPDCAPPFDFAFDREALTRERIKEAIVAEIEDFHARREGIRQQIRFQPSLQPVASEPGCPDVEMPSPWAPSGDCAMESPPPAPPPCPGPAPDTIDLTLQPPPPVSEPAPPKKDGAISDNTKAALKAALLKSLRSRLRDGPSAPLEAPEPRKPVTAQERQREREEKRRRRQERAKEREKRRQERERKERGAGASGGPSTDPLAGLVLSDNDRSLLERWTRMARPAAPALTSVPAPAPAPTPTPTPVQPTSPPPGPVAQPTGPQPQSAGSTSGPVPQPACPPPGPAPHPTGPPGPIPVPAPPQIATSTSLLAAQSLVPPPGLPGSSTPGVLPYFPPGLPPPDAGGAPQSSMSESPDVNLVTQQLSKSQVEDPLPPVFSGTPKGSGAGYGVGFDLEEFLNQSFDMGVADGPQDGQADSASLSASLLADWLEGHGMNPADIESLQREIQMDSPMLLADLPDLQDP

On to `O=C(NC1CCNCC1)c1cc(C(=O)c2c(Cl)ccc(F)c2F)c[nH]1` [Example 224, 4-(6-Chloro-2,3-difluorobenzoyl)-N-(piperidin-4-yl)-1H-pyrrole-2-carboxamide], for which the IC50 under setting [1] was determined as 155 nM. Still for that read-out and setting: the result for `CN1CCC(NC(=O)c2cc(C(=O)c3c(F)cccc3C3CC3)c[nH]2)CC1` [Example 204, 4-(2-Cyclopropyl-6-fluorobenzoyl)-N-(1-methylpiperidin-4-yl)-1H-pyrrole-2-carboxamide] reads 8230 nM.

As for `O=C(Nc1cnccc1N1CCCC1)c1cc(C(=O)c2c(F)cccc2Cl)c[nH]1` [Example 92, 4-(2-Chloro-6-fluorobenzoyl)-N-(4-(pyrrolidin-1-yl)pyridin-3-yl)-1H-pyrrole-2-carboxamide], the IC50 under setting [1] is 16500 nM.

In the case of `O=C(Nc1cnc(N2CCNCC2)nc1)c1cc(C(=O)c2c(F)cccc2Cl)c[nH]1` [Example 26, 4-(2-Chloro-6-fluorobenzoyl)-N-(2-(piperazin-1-yl)pyrimidin-5-yl)-1H-pyrrole-2-carboxamide], the IC50 under setting [1] amounted to 88.8 nM. The same measure, in the same setting: for `CN1CCC(Nc2ccc(NC(=O)c3cc(C(=O)c4c(Cl)ccc(Cl)c4F)c[nH]3)cn2)CC1` [Example 32, 4-(3,6-Dichloro-2-fluorobenzoyl)-N-(6-((1-methylpiperidin-4-yl)amino)pyridin-3-yl)-1H-pyrrole-2-carboxamide] the value was 23.8 nM; for `O=C(Nc1ccnc(Cl)n1)c1cc(C(=O)c2c(F)cccc2Cl)c[nH]1` [Example 140, 4-(2-Chloro-6-fluorobenzoyl)-N-(2-chloropyrimidin-4-yl)-1H-pyrrole-2-carboxamide], 4350 nM. Same read-out and setting: the result for `COc1ccc(F)c(C(=O)c2c[nH]c(C(=O)NC3CCN(C)CC3)c2)c1Cl` [Example 71, 4-(2-chloro-6-fluoro-3-methoxybenzoyl)-N-(1-methylpiperidin-4-yl)-1H-pyrrole-2-carboxamide] reads 173 nM; that for `Cc1cc(NC(=O)c2cc(C(=O)c3c(F)cccc3Cl)c[nH]2)nc(C)n1` [Example 142, 4-(2-Chloro-6-fluorobenzoyl)-N-(2,6-dimethylpyrimidin-4-yl)-1H-pyrrole-2-carboxamide], 4130 nM; that for `O=C(Nc1cnn(Cc2ccncc2)c1)c1cc(C(=O)c2c(Cl)ccc(Cl)c2F)c[nH]1` [Example 50, 4-(3,6-Dichloro-2-fluorobenzoyl)-N-(1-(pyridin-4-ylmethyl)-1H-pyrazol-4-yl)-1H-pyrrole-2-carboxamide], 21 nM. The same measure, in the same setting: for `Cn1cc(NC(=O)c2cc(C(=O)c3c(F)cccc3Cl)c[nH]2)cn1` [Example 269, 4-(2-Chloro-6-fluorobenzoyl)-N-(1-methyl-1H-pyrazol-4-yl)-1H-pyrrole-2-carboxamide] the value was 777 nM.

With `O=C(Nc1cnc(CN2CCOCC2)nc1)c1cc(C(=O)c2c(Cl)ccc(Cl)c2F)c[nH]1` [Example 242, 4-(3,6-Dichloro-2-fluorobenzoyl)-N-(2-(morpholinomethyl)pyrimidin-5-yl)-1H-pyrrole-2-carboxamide], under setting [1], the 50% inhibitory concentration (IC50) stood at 53 nM. The same measure, in the same setting: the result for `O=C(Nc1ccnc(Cl)c1)c1cc(C(=O)c2c(F)cccc2Cl)c[nH]1` [Example 34, 4-(2-Chloro-6-fluorobenzoyl)-N-(2-chloropyridin-4-yl)-1H-pyrrole-2-carboxamide] reads 2320 nM; that for `O=C(Nc1cccnc1)c1cc(C(=O)c2cc(Cl)ccc2F)c[nH]1` [Example 228, 4-(5-Chloro-2-fluorobenzoyl)-N-(pyridin-3-yl)-1H-pyrrole-2-carboxamide], 2380 nM. The same measure, in the same setting: for `CN1CCC(Nc2ncc(NC(=O)c3cc(C(=O)c4c(F)cccc4Cl)c[nH]3)cn2)CC1` [Example 23, 4-(2-Chloro-6-fluorobenzoyl)-N-(2-((1-methylpiperidin-4-yl)amino)pyrimidin-5-yl)-1H-pyrrole-2-carboxamide] the value was 93 nM; for `CCN(CC)CCn1cc(NC(=O)c2cc(C(=O)c3c(Cl)ccc(Cl)c3F)c[nH]2)cn1` [Example 43, 4-(3,6-Dichloro-2-fluorobenzoyl)-N-(1-(2-(diethylamino)ethyl)-1H-pyrazol-4-yl)-1H-pyrrole-2-carboxamide], 207 nM. Still for that read-out and setting: the result for `O=C(Nc1cccnc1)c1cc(C(=O)c2c(Cl)ccc(OC(CO)CCl)c2F)c[nH]1` (stereo not drawn) [Example 270, 4-(6-Chloro-3-((1-chloro-3-hydroxypropan-2-yl)oxy)-2-fluorobenzoyl)-N-(pyridin-3-yl)-1H-pyrrole-2-carboxamide] reads 458 nM.

Regarding `O=C(Nc1ccncc1)c1cc(C(=O)c2c(F)cccc2F)c[nH]1` [Example 121, 4-(2,6-Difluorobenzoyl)-N-(pyridin-4-yl)-1H-pyrrole-2-carboxamide], the IC50 stood at 900 nM. With `COCCOc1ccc(Cl)c(C(=O)c2c[nH]c(C(=O)Nc3cnn(C)c3)c2)c1F` [Example 260, 4-(6-Chloro-2-fluoro-3-(2-methoxyethoxy)benzoyl)-N-(1-methyl-1H-pyrazol-4-yl)-1H-pyrrole-2-carboxamide], the IC50 under setting [1] stood at 1190 nM. The same measure, in the same setting: the result for `O=C(Nc1ccc(CO)nc1)c1cc(C(=O)c2c(Cl)ccc(Cl)c2F)c[nH]1` [Example 120, 4-(3,6-dichloro-2-fluorobenzoyl)-N-(6-(hydroxymethyl)pyridin-3-yl)-1H-pyrrole-2-carboxamide] reads 200 nM; that for `Cc1ccc(F)c(C(=O)c2c[nH]c(C(=O)Nc3cccnc3)c2)c1F` [Example 217, 4-(2.6-Difluoro-3-methylbenzoyl)-N-(pyridin-3-yl)-1H-pyrrole-2-carboxamide], 660 nM; that for `Cc1ncccc1NC(=O)c1cc(C(=O)c2c(F)cccc2Cl)c[nH]1` [Example 148, 4-(2-Chloro-6-fluorobenzoyl)-N-(2-methylpyridin-3-yl)-1H-pyrrole-2-carboxamide], 960 nM. Still for that read-out and setting: the result for `Cn1cc(NC(=O)c2cc(C(=O)c3c(Cl)ccc(OC4CCOC4)c3F)c[nH]2)cn1` (stereo not drawn) [Example 261, 4-(6-Chloro-2-fluoro-3-((tetrahydrofuran-3-yl)oxy)benzoyl)-N-(1-methyl-1H-pyrazol-4-yl)-1H-pyrrole-2-carboxamide] reads 553 nM. The same measure, in the same setting: the result for `CCCc1ccncc1NC(=O)c1cc(C(=O)c2c(Cl)ccc(Cl)c2F)c[nH]1` [Example 95, 4-(3,6-Dichloro-2-fluorobenzoyl)-N-(4-propylpyridin-3-yl)-1H-pyrrole-2-carboxamide] reads 2820 nM; that for `CCOc1ccncc1NC(=O)c1cc(C(=O)c2c(Cl)ccc(Cl)c2F)c[nH]1` [Example 97, 4-(3,6-Dichloro-2-fluorobenzoyl)-N-(4-ethoxypyridin-3-yl)-1H-pyrrole-2-carboxamide], 1380 nM. On to `O=C(Nc1cccnc1)c1cc(C(=O)c2c(Cl)ccc(Br)c2F)c[nH]1` [Example 181, 4-(3-Bromo-6-chloro-2-fluorobenzoyl)-N-(pyridin-3-yl)-1H-pyrrole-2-carboxamide], for which the IC50 under setting [1] was determined as 66.5 nM.

In the case of `O=C(Nc1ccc(CO)nc1)c1cc(C(=O)c2c(F)cccc2Cl)c[nH]1` [Example 119, 4-(2-chloro-6-fluorobenzoyl)-N-(6-(hydroxymethyl)pyridin-3-yl)-1H-pyrrole-2-carboxamide], the IC50 under setting [1] came out at 530 nM.

As to `O=C(NC1CCNCC1)c1cc(C(=O)c2c(F)cccc2C2CC2)c[nH]1` [Example 203, 4-(2-Cyclopropyl-6-fluorobenzoyl)-N-(piperidin-4-yl)-1H-pyrrole-2-carboxamide], the IC50 under setting [1] amounted to 5820 nM.
